In PMC7744367 (European journal of medicinal chemistry, 2020):
Read-outs that look alike come from different tables or passages of the source.

Assays:
CQS 3D7 strain = experiment: In vitro antiplasmodial activity, SYBR Green I-based fluorescent assay; type: cell-based, P. falciparum; conditions: Plasmodium falciparum, 3D7, 72 h, read-out: Antiplasmodial activity EC50 3D7
in vitro = conditions: human
[1] = tested on: CQR Dd2 strain of P. falciparum; experiment: microbe, parasite or virus in culture; type: cell-based
[2] = tested on: tightly synchronized P. falciparum Dd2 cultures; experiment: Stage specific action assay; type: cell-based; conditions: 5 × EC50, synchronized Dd2, late schizont/segmenters
[3] = tested on: P. falciparum Dd2 asynchronous cultures; experiment: In vitro killing profile assay; type: cell-based; conditions: 5 × EC50, Dd2, compound washed out, growth monitored 96 h
[4] = Plasmodium falciparum, DD2, 72 h, read-out: Antiplasmodial activity EC50 Dd2, CQR Dd2 strain, 72 h incubation, at least three independent experiments

`CCN(CC)CCCC(C)Nc1ccnc2cc(Cl)ccc12` (centres unmarked) [CQ, chloroquine] showed an EC50 (CQS 3D7 strain) of 0.02 ± 0.01 µM, an EC50 at 48 h (in vitro) of 10.4 ± 0.86 µM and an EC50 ([1]; Plasmodium falciparum, DD2, 72 h, read-out: Antiplasmodial activity EC50 Dd2) of 0.17 ± 0.02 µM.

`Clc1ccc2nc(/C=C/c3ccncc3)cc(-n3cc(CN4CCOCC4)nn3)c2c1` [compound 28, (E)-4-((1-(6-chloro-2-(2-(pyridin-4-yl)vinyl)quinolin-4-yl)-1H-1,2,3-triazol-4-yl)-methyl)morpholine] gave an EC50 [1, 4] of over 8 µM.

For `CN1CCN(Cc2cn(-c3cc(/C=C/c4ccncc4)nc4ccc(Cl)cc34)nn2)CC1` [compound 29, (E)-6-chloro-4-(4-((4-methylpiperazin-1-yl)methyl)-1H-1,2,3-triazol-1-yl)-2-(2-(pyridin-4-yl)vinyl)quinoline], the EC50 [1, 4] was over 8 µM.

For `O=C1c2ccccc2C(=O)N1Cc1cn(-c2cc(/C=C/c3ccncc3)nc3ccc(Cl)cc23)nn1` [compound 32, (E)-2-((1-(6-chloro-2-(2-(pyridin-4-yl)vinyl)quinolin-4-yl)-1H-1,2,3-triazol-4-yl)methyl)isoindoline-1,3-dione], the EC50 [1, 4] was over 8 µM.

In the case of `Clc1ccc2nc(/C=C/c3ccncc3)cc(NCCn3cc(CN4CCOCC4)nn3)c2c1` [compound 53, (E)-6-chloro-N-(2-(4-(morpholinomethyl)-1H-1,2,3-triazol-1-yl)ethyl)-2-(2-(pyridin-4-yl)vinyl)quinolin-4-amine], the “fold improved activity over analogue 28” value ([1]; Dd2 EC50 ratio) is reported as “above 5 fold”.

For `O=C1c2ccccc2C(=O)N1Cc1cn(CCNc2cc(/C=C/c3ccncc3)nc3ccc(Cl)cc23)nn1` [compound 57, (E)-2-((1-(2-((6-chloro-2-(2-(pyridin-4-yl)vinyl)quinolin-4-yl)amino)ethyl)-1H-1,2,3-triazol-4-yl)methyl)isoindoline-1,3-dione], the “fold more potent than compound 32” value ([1]; Dd2 EC50 ratio) was about 8 fold.

With `Clc1ccc2nc(/C=C/c3ccncc3)cc(NCCCCn3cc(CN4CCCCC4)nn3)c2c1` [compound 60, (E)-6-chloro-N-(4-(4-(piperidin-1-ylmethyl)-1H-1,2,3-triazol-1-yl)butyl)-2-(2-(pyridin-4-yl)vinyl)quinolin-4-amine] the “effect on intraerythrocytic development, compound added at 42 h” value [2] was “did not affect the schizont maturation and reinvasion of new merozoites” and the “parasite viability after 24 and 48 h exposure” value [3] was “complete loss of parasite viability”.

With “(E)-2-((1-(4-((6-chloro-2-styrylquinolin-4-yl)amino)butyl)-1H-1,2,3-triazol-4-yl)methyl)isoindoline-1,3-dione [compound 64]” the EC50 ([1]; read-out: Antiplasmodial activity EC50 Dd2, CQR Dd2 strain, 72 h incubation, at least three independent experiments) was 1 ± 0.18 µM.
